Test results reported in ChEMBL document CHEMBL1833797, “Microwave assisted synthesis and antimicrobial evaluation of new fused pyran derivatives bearing 2-morpholinoquinoline nucleus” (2011).
Values after ≈ are worked out from the molar mass of the structure shown.

Tests used:
Candida albicans = experiment: Antifungal activity against Candida albicans MTCC 227 for 48 hrs by microdilution method; type: functional
Salmonella typhi = experiment: Antimicrobial activity against Salmonella typhi MTCC 98 for 24 hrs by microdilution method; type: functional, Salmonella enterica subsp. enterica serovar Typhi; settings: Salmonella enterica, MTCC 98, 24 h
Vibrio cholerae = experiment: Antimicrobial activity against Vibrio cholerae MTCC 3906 for 24 hrs by microdilution method; type: functional; settings: MTCC 3906, 24 h
Bacillus subtilis = experiment: Antimicrobial activity against Bacillus subtilis MTCC 441 for 24 hrs by microdilution method; type: functional; settings: MTCC 441, 24 h
Streptococcus pneumoniae = experiment: Antimicrobial activity against Streptococcus pneumoniae MTCC 1936 for 24 hrs by microdilution method; type: functional; settings: MTCC 1936, 24 h
Clostridium tetani = experiment: Antimicrobial activity against Clostridium tetani MTCC 449 for 24 hrs by microdilution method; type: functional; settings: MTCC 449, 24 h
Escherichia coli = experiment: Antimicrobial activity against Escherichia coli MTCC 443 for 24 hrs by microdilution method; type: functional; settings: MTCC 443, 24 h
Aspergillus fumigatus = experiment: Antifungal activity against Aspergillus fumigatus MTCC 3008 for 48 hrs by microdilution method; type: functional

Molecule	MIC (Candida albicans; MTCC 227, 48 h)	MIC (Salmonella typhi)	MIC (Vibrio cholerae)	MIC (Bacillus subtilis)	MIC (Streptococcus pneumoniae)	MIC (Clostridium tetani)	MIC (Escherichia coli)	MIC (Aspergillus fumigatus; MTCC 3008, 48 h)	MIC (Candida albicans)	MIC (Aspergillus fumigatus)
COc1ccc2nc(N3CCOCC3)c(C3C(C#N)=C(N)Oc4c3c(=O)oc3ccccc43)cc2c1 (stereo not drawn)	200 µg/mL (≈ 415 µM)	500 µg/mL (≈ 1040 µM)	500 µg/mL (≈ 1040 µM)	200 µg/mL (≈ 415 µM)	200 µg/mL (≈ 415 µM)	500 µg/mL (≈ 1040 µM)	500 µg/mL (≈ 1040 µM)	1000 µg/mL (≈ 2070 µM)		
NYSTATIN									100 µg/mL	100 µg/mL
O=C(O)c1cn(C2CC2)c2cc(N3CCNCC3)c(F)cc2c1=O [CIPROFLOXACIN]		25 µg/mL (≈ 75.4 µM)	25 µg/mL (≈ 75.4 µM)		50 µg/mL (≈ 151 µM)		25 µg/mL (≈ 75.4 µM)			
COc1ccc2nc(N3CCOCC3)c(C3C(C#N)=C(N)Oc4cc(O)ccc43)cc2c1 (stereo not drawn)	500 µg/mL (≈ 1160 µM)	250 µg/mL (≈ 581 µM)	250 µg/mL (≈ 581 µM)	200 µg/mL (≈ 465 µM)	12.5 µg/mL (≈ 29 µM)	250 µg/mL (≈ 581 µM)	250 µg/mL (≈ 581 µM)	500 µg/mL (≈ 1160 µM)		
Cc1ccc2nc(N3CCOCC3)c(C3C(C#N)=C(N)Oc4cc(O)ccc43)cc2c1 (stereo not drawn)	> 1000 µg/mL	200 µg/mL (≈ 483 µM)	200 µg/mL (≈ 483 µM)	500 µg/mL (≈ 1210 µM)	500 µg/mL (≈ 1210 µM)	200 µg/mL (≈ 483 µM)	200 µg/mL (≈ 483 µM)	> 1000 µg/mL		
CC1(C)CC(=O)C2=C(C1)OC(N)=C(C#N)C2c1cc2ccccc2nc1N1CCOCC1 (stereo not drawn)	500 µg/mL (≈ 1160 µM)	200 µg/mL (≈ 465 µM)	250 µg/mL (≈ 581 µM)	200 µg/mL (≈ 465 µM)	500 µg/mL (≈ 1160 µM)	250 µg/mL (≈ 581 µM)	250 µg/mL (≈ 581 µM)	1000 µg/mL (≈ 2320 µM)		
COc1ccc2nc(N3CCOCC3)c(C3C(C#N)=C(N)OC4=C3C(=O)c3ccccc3C4=O)cc2c1 (stereo not drawn)	> 1000 µg/mL	200 µg/mL (≈ 404 µM)	250 µg/mL (≈ 506 µM)	200 µg/mL (≈ 404 µM)	200 µg/mL (≈ 404 µM)	100 µg/mL (≈ 202 µM)	100 µg/mL (≈ 202 µM)	1000 µg/mL (≈ 2020 µM)		
Cc1ccc2nc(N3CCOCC3)c(C3C(C#N)=C(N)OC4=C3C(=O)CC(C)(C)C4)cc2c1 (stereo not drawn)	250 µg/mL (≈ 562 µM)	250 µg/mL (≈ 562 µM)	250 µg/mL (≈ 562 µM)	200 µg/mL (≈ 450 µM)	25 µg/mL (≈ 56.2 µM)	500 µg/mL (≈ 1120 µM)	200 µg/mL (≈ 450 µM)	1000 µg/mL (≈ 2250 µM)		
Cc1ccc2nc(N3CCOCC3)c(C3C(C#N)=C(N)Oc4[nH]nc(C)c43)cc2c1 (stereo not drawn)	1000 µg/mL (≈ 2480 µM)	250 µg/mL (≈ 621 µM)	250 µg/mL (≈ 621 µM)	200 µg/mL (≈ 497 µM)	200 µg/mL (≈ 497 µM)	250 µg/mL (≈ 621 µM)	200 µg/mL (≈ 497 µM)	1000 µg/mL (≈ 2480 µM)		
CC1(C)S[C@@H]2[C@H](NC(=O)[C@H](N)c3ccccc3)C(=O)N2[C@H]1C(=O)O [AMPICILLIN]		100 µg/mL (≈ 286 µM)	100 µg/mL (≈ 286 µM)	250 µg/mL (≈ 715 µM)	100 µg/mL (≈ 286 µM)	250 µg/mL (≈ 715 µM)	100 µg/mL (≈ 286 µM)			
COc1ccc2nc(N3CCOCC3)c(C3C(C#N)=C(N)Oc4cc(C)oc(=O)c43)cc2c1 (stereo not drawn)	250 µg/mL (≈ 560 µM)	250 µg/mL (≈ 560 µM)	250 µg/mL (≈ 560 µM)	200 µg/mL (≈ 448 µM)	250 µg/mL (≈ 560 µM)	250 µg/mL (≈ 560 µM)	200 µg/mL (≈ 448 µM)	1000 µg/mL (≈ 2240 µM)		
N#CC1=C(N)OC2=C(C(=O)CCC2)C1c1cc2ccccc2nc1N1CCOCC1 (stereo not drawn)	1000 µg/mL (≈ 2480 µM)	250 µg/mL (≈ 621 µM)	250 µg/mL (≈ 621 µM)	100 µg/mL (≈ 248 µM)	100 µg/mL (≈ 248 µM)	250 µg/mL (≈ 621 µM)	250 µg/mL (≈ 621 µM)	> 1000 µg/mL		
COc1ccc2nc(N3CCOCC3)c(C3C(C#N)=C(N)OC4=C3C(=O)CC(C)(C)C4)cc2c1 (stereo not drawn)	1000 µg/mL (≈ 2170 µM)	500 µg/mL (≈ 1090 µM)	500 µg/mL (≈ 1090 µM)	100 µg/mL (≈ 217 µM)	100 µg/mL (≈ 217 µM)	500 µg/mL (≈ 1090 µM)	500 µg/mL (≈ 1090 µM)	100 µg/mL (≈ 217 µM)		
Cc1ccc2nc(N3CCOCC3)c(C3C(C#N)=C(N)Oc4c3ccc3ccccc43)cc2c1 (stereo not drawn)	> 1000 µg/mL	250 µg/mL (≈ 557 µM)	12.5 µg/mL (≈ 27.9 µM)	500 µg/mL (≈ 1110 µM)	500 µg/mL (≈ 1110 µM)	500 µg/mL (≈ 1110 µM)	200 µg/mL (≈ 446 µM)	500 µg/mL (≈ 1110 µM)		
Cc1n[nH]c2c1C(c1cc3ccccc3nc1N1CCOCC1)C(C#N)=C(N)O2 (stereo not drawn)	1000 µg/mL (≈ 2570 µM)	100 µg/mL (≈ 257 µM)	200 µg/mL (≈ 515 µM)	250 µg/mL (≈ 644 µM)	250 µg/mL (≈ 644 µM)	100 µg/mL (≈ 257 µM)	62.5 µg/mL (≈ 161 µM)	1000 µg/mL (≈ 2570 µM)		
